Read-outs that look alike come from different tables or passages of the source.
Legend:
[1] = Airway hyperresponsiveness (sRaw) to methacholine in ovalbumin asthma model; format: in vivo, ova s/c BALB/c mice; settings: oral gavage, 100 mg/kg twice daily for 5 days, methacholine challenge
Experimental: Compounds described herein may reduce airway hyperresponsiveness in animal models of asthma. Therefore, mice may be sensitized three times with intra-peritoneal (i.p.) injections of 2 mg/kg/d of ovalbumin (Ova) emulsified in […] on days 0, 7 and 14 in a total volume of 100 μL. In addition, mice may be challenged intra-nasally (i.n.) with 1 mg/kg/d Ova for 5 days from days 23-27. Control mice may be sensitized with Ova and challenged with saline. The airway hyperresponsiveness measurements may be carried out with DSI's Buxco® FinePointe Non-Invasive Airway Mechanics (NAM) instrument consisting of a nasal chamber in combination with the thoracic chamber that allows the computation of specific airway resistance (sRaw). Treated conscious, spontaneously breathing Ova S/C mice may be exposed to aerosolized phosphate buffered saline (PBS) (for the baseline measurement) or methacholine (1.5625-12.5 mg/mL) for 1 minute and readings (sRaw) may be taken and averaged for 3 minutes after each nebulization.
Drug treatment protocol: Sterile solutions of compounds were prepared in 2% hydroxypropyl methylcellulose solution (Sigma-Aldrich, St. Louis, Mo.) and 2.5% polyethylene glycol (Sigma Aldrich, St. Louis, Mo.) for oral administration in a biological safety cabinet. A fine suspension was obtained by grinding the mixture with a mortar and pestle. Drugs were administered individually at 100 mg/kg by oral gavage (200 ul) with 20G gavage needles (Kent Scientific Corporation, Torrington Conn.) to groups of ova s/c BALB/c twice daily for 5 days during the ova challenge period. Mice received a single p.o. dose of the compounds just before airway parameter measurements. Compounds for i.p. injection were prepared in 10% DMSO, 40% propylene glycol, and 50% PBS and given as 100 ul injection. Mice were monitored daily after drug administration. Assessment of Airway hyper-responsiveness: Airway hyper-responsiveness to methacholine in conscious, spontaneously breathing animals was measured by DSI's Buxco® FinePointe Non-Invasive Airway Mechanics (NAM) instrument. Before measurements were taken, mice were acclimated to the chambers 15 minutes daily for 5 days. In addition, an ovalbumin sensitization and challenge protocol consists of randomized male BALB/c mice that were sensitized three times with intra-peritoneal (i.p.) injections of 2 mg/kg/d of ovalbumin (Ova) (Sigma-Aldrich, St. Louis, Mo.) emulsified in 2 mg of Alum (Imject Alum; Thermo Scientific, Pierce, Rockford, Ill.) on days 0, 7 and 14 in a total volume of 100 μL. The mice were then challenged intra-nasally (i.n.) with 1 mg/kg/d Ova for 5 days from days 23-27. Control mice were sensitized with Ova and challenged with saline. The chambers were also calibrated each time before data collection. Briefly, the nasal chamber in combination with the thoracic chamber allows the computation of specific airway resistance (sRaw). The FinePointe software computes specific airway resistance (sRaw) with all other ventilatory parameters derived by the NAM analyzer. Mice were exposed to aerosolized PBS (for the baseline measurement) or methacholine (1.5625-12.5 mg/mL) for 1 minute and readings were taken and averaged for 3 minutes after each nebulization. Data obtained were presented as sRaw versus the methacholine concentration (mg/mL) used to generate the aerosol. FIG. 5A-5F show compound effects on airway hyperresponsiveness. Specific airway resistance (sRaw) was measured at increasing dosages of methacholine by a DSI's Buxco FinePointe non-invasive airway mechanics instrument. Ova s/c BALB/c mice were administered all compounds via oral gavage, 100 mg/kg twice daily for 5 days. Data represent mean±SEM from 10 mice in each group. *, **, and *** indicate p<0.05, p<0.01, p<0.001 significance, respectively, compared to vehicle treated ova s/c BALB/c mice.

[2] = system: inflammatory cells, eosinophils, CD4+ T cells in BALF; test: Inflammatory cell numbers in BALF by flow cytometry; format: in vivo, ova s/c BALB/c mice; settings: 100 mg/kg twice daily for 5 days
Experimental: The change of the number of specific immune cells caused by compounds may be investigated in the bronchoalveolar lavage fluid (BALF) of Ova S/C mice. Therefore, a bronchoalveolar lavage may be carried out followed by the lysis of red blood cells. Incubation of cell-type specific antibodies with BALF may allow the quantification of leukocytes such as eosinophils and CD4^+ T-lymphocytes using flow cytometry.
Determination of anti-inflammatory properties of compounds were investigated in an allergen induced mouse model of asthma. At the day of analysis, bronchoalveolar lavage (BAL) was performed with 1 mL of Ca2+ and Mg2+ free PBS. Red blood cells (RBCs) were lysed using BD red blood cell lysis buffer (BD Pharmingen, San Jose, Calif.). BALF was split into four different tubes and non-specific binding to Fc receptors was blocked for 5 minutes using 6 μg/mL of 2.4G2 mouse BD Fc Block™ (BD Pharmingen, San Jose, Calif.). BALF cells were stained for 30 minutes at 4° C. in the dark with 100 μL BSA stain buffer (BD Pharmingen, San Jose, Calif.) containing the final concentrations of the following antibodies: anti-mouse CD45 APC (1:1000, 30-F11, Affymetrix eBiosciences, San Diego, Calif.), FITC rat anti-mouse CD4 (1:500, RM4-5, BD Pharmingen, San Jose, Calif.), PE Rat Anti-Mouse Siglec F (1:500, E50-2440, BD Pharmingen, San Jose, Calif.) and mouse CCR3 PE-conjugated antibody (1:40, 83101, R&D systems Inc, Minneapolis, Minn.). Flow cytometric studies were done using the BD FACS Calibur (BD Pharmingen, San Jose, Calif.) and data analyzed subsequently using Cell Quest pro software (BD Pharmingen, San Jose, Calif.). General gating for immune cells were followed. Total inflammatory cell count was obtained by running all samples on high (60 μL/min) for 180 seconds. The gated anti-mouse CD45 positive events in the fourth channel (FL4) were used to calculate the total inflammatory cell count as cells/mL. The frequencies of CCR3+/Siglec F were used for quantification of eosinophils and CD4+ for CD4+ T cell populations in their respective gates were multiplied by the total inflammatory cell count (cells/mL) to obtain the differential cell population. Statistical analysis: Data were analyzed using GraphPad Prism 4 (GraphPad Software, San Diego, Calif.) and expressed as mean±SEM. One-way analysis of variance (ANOVA) with Dunnet post hoc test or two-way ANOVA with Bonferroni post hoc test were performed for statistical difference for multiple groups. FIGS. 7A-7C show effects of compounds on inflammatory cells. Groups of 10 ova s/c BALB/c mice were administered compounds at 100 mg/kg twice daily for 5 days. BALF was harvested from each animal and used for (A) quantification of total inflammatory cells; (B) eosinophils; (C) CD4^+ T cells. Cells were stained with mouse CD45^+ APC antibody, and samples were analyzed with BD FACS Calibur on high flow rate (60 μl/minute) for 180 seconds. The gated positive events in the fourth channel (FL4) were used to calculate the total inflammatory cell count as cells/ml. Quantification of specific leukocyte population (B) eosinophils (C) CD4^+ T cell populations were stained with specific antibodies and detected by flow cytometry. Data represent mean±SEM from 10 mice in each group. *, **, and *** indicate p<0.05, p<0.01, and p<0.001 significance, respectively, compared to vehicle treated ova s/c BALB/c mice.

HEK293 = test: Cytotoxicity, CellTiter-Glo cell viability assay, kidney cells; format: cell-based, human
Experimental: The cytotoxicity of compounds may be evaluated by treating HEK293 human embryonic kidney cells with increasing concentrations of compounds for 24-48 hours followed by the quantification of living cells using Cell-Titer Glo (Promega).
Compounds with increased cytotoxicity can be identified using an in vitro cytotoxicity assay. Therefore, human embryonic kidney 293T (HEK293T) cell lines were purchased (ATCC) and cultured in 75 cm2 flasks (CellStar). Cells were grown in DMEM/High Glucose (Hyclone, #SH3024301) media to which non-essential amino acids (Hyclone, #SH30238.01), 10 mM HEPES (Hyclone, #SH302237.01), 5×106 units of penicillin and streptomycin (Hyclone, #SV30010), and 10% of heat inactivated fetal bovine serum (Gibco, #10082147) were added. Cells were harvested using 0.05% Trypsin (Hyclone, #SH3023601). The cell viability assay was evaluated using CellTiter-Glo™ Luminescent Cell Viability Assay Kit (Promega, Madison, Wis.), which contains luciferase and all its substrate except ATP. The controls for the cytotoxicity assay used were (E)-10-(bromotriphenylphosphoranyl)decyl 4-(4-(tert-butyl)phenyl)-4-oxobut-2-enoate (400 μM in DMSO, positive control) and DMSO (negative control). All luminescence readings were performed on a Tecan Infinite M1000 plate reader. Small volume transfers were performed on the Tecan Freedom EVO liquid handling system with a 100 nL pin tool transfer (V&P Scientific). Serial dilutions were done in 96-well polypropylene plates (Corning, #3365) and assays were conducted in 384-well white optical bottom plates. The assays were carried out in quadruplet in three independent runs. The data were normalized to the controls and if possible analyzed by nonlinear regression (GraphPad Prism).

HEPG2 = test: Cytotoxicity, liver cells; format: cell-based, human
[3] = Microsomal stability, mouse liver microsomes; format: in vitro ADME; settings: 10 μM compound
Experimental: (§1) The metabolic stability of compounds in vivo can be estimated with the stability of compounds in the presence of liver microsomes. Therefore, 4 μL of 1 mM DMSO solution of test compound at a final concentration of 10 μM were preincubated at 37° C. for 5 minutes on a digital heating shaking dry bath (Fischer scientific, Pittsburgh, Pa.) in a mixture containing 282 μL of water, 80 μL of phosphate buffer (0.5 M, pH 7.4) 20 μL of NADPH Regenerating System Solution A (BD Bioscience, San Jose, Calif.) and 4 μL of NADPH Regenerating System Solution B (BD Bioscience, San Jose, Calif.) in a total volume of 391.2 μL. Following preincubation, the reaction was initiated by addition of 8.8 μL of either human liver microsomes (BD Gentest, San Jose, Calif.) or mouse liver microsomes (Life technologies, Rockford, Ill.) at a protein concentration of 0.5 mg/mL. Aliquots of 50 μL were taken at time intervals of 0 (without microsomes), 10, 20, 30, 40, 50 and 60 minutes. Each aliquot was added to 100 μL of cold acetonitrile solution containing 1 μM of verapamil HCL as internal standard. This was followed by sonication for 10 seconds and centrifugation at 10,000 rpm for 5 minutes. 100 μL of the supernatant was transferred into Spin-X HPLC filter tubes (Corning Incorporated, NY) and centrifuged at 13,000 rpm for 5 minutes. The filtrate was diluted 100-fold and subsequently analyzed by LC-MS/MS with Shimadzu LCMS 8040, (Shimadzu Scientific Instruments, Columbia, Md.). The ratio of the peak areas of the internal standard and test compound was calculated for every time point and the natural log of the ratio were plotted against time to determine the linear slope (k). The metabolic rate (k*C0/C), half-life (0.693/k), and […] (V*k) were calculated, where k is the slope, C0 is the initial concentration of test compound, C is the concentration of microsomes, and V is the volume of incubation in μL per microsomal protein in mg. All experiments were repeated two time in triplicates.

[4] = Microsomal stability, human liver microsomes; format: in vitro ADME; settings: 10 μM compound
Experimental: as §1

[5] = system: guinea pig airway smooth muscle; test: Relaxation of substance P contracted guinea pig tracheal rings; parameters: dose or concentration left out as unconfirmed
[6] = Pharmacokinetic analysis in blood, lungs and brain; settings: mouse, 25 mg/kg oral gavage

Row | SMILES | airway hyperresponsiveness (sRaw) [1] | numbers of inflammatory cells in BALF [2] | MLM % remaining after 60 min [3] [%] | HLM % remaining after 60 min [4] [%] | also measured
1 | C[C@H]1N=C(c2ccccc2F)c2cc(C3CC3)ccc2-n2cnc(C(=O)O)c21 [GL-III-43, (R)-8-cyclopropyl-6-(2-fluorophenyl)-4-methyl-4H-benzo[f]imidazo[1,5-a][1,4]diazepine-3-carboxylic acid] | not able to alleviate airway hyperresponsiveness | did not modulate the numbers of inflammatory cells |  |  | 
2 | CC(C)(C)OC(=O)c1ncn2c1[C@@H]1CCCN1C(=O)c1cc(O)ccc1-2 [RJ-02-67, tert-butyl (S)-7-hydroxy-9-oxo-11,12,13,13a-tetrahydro-9H-benzo[e]imidazo[5,1-c]pyrrolo[1,2-a][1,4]diazepine-1-carboxylate] |  |  | 46.6 ± 0.3 | 90.6 ± 0.2 | LD50 HEK293 (Kidney) (HEK293; human, HEK293 (HEK293T) human embryonic kidney cells): >400 µM; LD50 HEPG2 (Liver) (HEPG2; human, HepG2 liver cells): >400 µM
3 | COc1ccc2c(c1)C(=O)N1CCC[C@H]1c1c(-c3nnn[nH]3)ncn1-2 [RJ-03-57, (S)-7-methoxy-1-(1H-tetrazol-5-yl)-11,12,13,13a-tetrahydro-9H-benzo[e]imidazo[5,1-c]pyrrolo[1,2-a][1,4]diazepin-9-one] | not able to alleviate airway hyperresponsiveness |  | 98.3 ± 0.2 | 94.3 ± 0.1 | LD50 HEK293 (Kidney) (HEK293): >200 µM; LD50 HEPG2 (Liver) (HEPG2): >200 µM; airway smooth muscle contractile force, guinea pig tracheal rings [5]: All investigated compounds except RJ-03-57 reduced the constriction of airway smooth muscle; absorption [6]: moderate absorption; clearance [6]: fast clearance
4 | O=C(O)c1ncn2c1[C@@H]1CCCN1C(=O)c1cc(O)ccc1-2 [RJ-03-90, (S)-7-hydroxy-9-oxo-11,12,13,13a-tetrahydro-9H-benzo[e]imidazo[5,1-c]pyrrolo[1,2-a][1,4]diazepine-1-carboxylic acid] |  | did not modulate the numbers of inflammatory cells |  |  | 
